In patent US20100286131A1, “VIRAL POLYMERASE INHIBITORS” (BOEHRINGER INGELHEIM INTERNATIONAL GMBH, priority 2007, published 2010) one finds EC50 and HLM data, which are given here for 14 molecules.

Structures are written as SMILES.

The first data set relates to cells expressing a stable subgenomic HCV replicon. Briefly: Cell-based luciferase reporter HCV RNA replication assay. The conditions noted are these: Hepatitis C virus, inhibition of HCV RNA replication, assay of WO 2005/028501. On the procedure:
Cell-Based Luciferase Reporter HCV RNA Replication Assay
Compounds of the invention are tested for activity as inhibitors of hepatitis C virus RNA replication in cells expressing a stable subgenomic HCV replicon, using the assay described in WO 2005/028501, herein incorporated by reference. Table 4 lists representative compounds of the invention with their EC50 values and a comparative non-fluorinated analog wherein the presence of the fluorine atom provided an unexpected improvement in cell-based potency.
For the molecule `Cc1ccc(OCc2cnc(Oc3ccc(N(C(=O)[C@H]4CC[C@H](C)CC4)C(C)C)c(C(=O)O)c3)c(C(F)(F)F)c2)c(C)n1`, the EC50 came out at 0.0865 µM.

Take `CC(C)N(c1ccc(Cc2ccc(Cn3cccc4ccnc3-4)cc2C(F)(F)F)cc1C(=O)O)C(=O)[C@H]1CC[C@H](C)CC1`: the EC50 was determined as 0.208 µM.

`CC(C)N(c1ccc(Oc2ncc(Cn3cnnc3)cc2C(F)(F)F)cc1C(=O)O)C(=O)[C@H]1CC[C@H](C)CC1` showed an EC50 of 0.16 µM. The EC50 values of the last two molecules are within 1.5-fold of each other.

Molecule `CC(C)N(c1ccc(Oc2ncc(CN3CCC(F)(F)C3)cc2C(F)(F)F)cc1C(=O)O)C(=O)[C@H]1CC[C@H](C)CC1` showed an EC50 of 0.089 µM.

`CC(C)N(c1ccc(Oc2ccc(Cn3ccc4cccnc43)cc2C(F)(F)F)cc1C(=O)O)C(=O)[C@H]1CC[C@H](C)CC1` gave an EC50 of 0.265 µM.

The molecule `CC(C)N(c1cc(F)c(Oc2ncc(Cn3cnnc3)cc2C(F)(F)F)cc1C(=O)O)C(=O)[C@H]1CC[C@H](C)CC1` [Compound 1042] yielded a 50% effective concentration (EC50) of 0.047 µM.

With `Cc1ccc(OCc2cnc(Oc3cc(C(=O)O)c(N(C(=O)[C@H]4CC[C@H](C)CC4)C(C)C)cc3F)c(C(F)(F)F)c2)c(C)n1` [Compound 1058], the EC50 is 0.0395 µM.

For the molecule `CC(C)N(c1cc(F)c(Oc2ncc(CN3CCC(F)(F)C3)cc2C(F)(F)F)cc1C(=O)O)C(=O)[C@H]1CC[C@H](C)CC1` [Compound 1101], the EC50 was 0.0415 µM.

Molecule `CC(C)N(c1cc(F)c(Oc2ccc(Cn3cccc4ccnc3-4)cc2C(F)(F)F)cc1C(=O)O)C(=O)[C@H]1CC[C@H](C)CC1` [Compound 3016] displayed an EC50 of 0.0725 µM.

With `CC(C)N(c1cc(F)c(Oc2ccc(Cn3ccc4cccnc43)cc2C(F)(F)F)cc1C(=O)O)C(=O)[C@H]1CC[C@H](C)CC1` [Compound 3033], a half-maximal effect (EC50) was put at 0.145 µM. This EC50 is about 2-fold higher than that of the molecule before.

System in another data set: not listed separately
Briefly: In vitro metabolism in male human liver microsomes (HLM). Format: in vitro ADME. The conditions noted are these: 1 mg microsomal protein, 2.5 mM NADPH, 2 μM compound, pH 7.4, 37° C. On the procedure:
Male human liver microsomes are purchased from Gentest. The pool consisted of microsomes from several donors. The in vitro metabolism in liver microsomes is carried out in a reaction media containing 1 mg of microsomal protein, 2.5 mM NADPH and 2 μM compound in a total volume of 1 ml of 0.066 M Tris buffer, pH 7.4 for 20 minutes at 37° C. Reactions are initiated by the addition of NADPH and terminated at the appropriate times by quenching with an equal volume of a 1:1 mixture of acetonitrile:methanol.
As for `CC(C)N(c1ccc(Oc2ncccc2C(F)(F)F)cc1C(=O)O)C(=O)[C@H]1CC[C@H](C)CC1`, the HLM came out at 69 min.

Consider `Cc1nc(Cc2ccc(Oc3ccc(N(C(=O)[C@H]4CC[C@H](C)CC4)C(C)C)c(C(=O)O)c3)c(C(F)(F)F)c2)cs1`, for which the HLM was determined as 29 min.

In turn, `CC(C)N(c1cc(F)c(Oc2ncccc2C(F)(F)F)cc1C(=O)O)C(=O)[C@H]1CC[C@H](C)CC1` [Compound 1011] returned an HLM of 136 min.

As to `Cc1nc(Cc2cnc(Oc3cc(C(=O)O)c(N(C(=O)[C@H]4CC[C@H](C)CC4)C(C)C)cc3F)c(C(F)(F)F)c2)cs1` [Compound 1072], the HLM was 129 min.
